Test results published in patent US7319110B2, “1H-1,2,4-triazole-3-carboxamide derivatives having cannabinoid-CB1 receptor agonistic, partial agonistic, inverse agonistic or antagonistic activity” (Solvay Pharmaceuticals B.V., priority 2002, dated 2008).

SMILES | melting point
Cl.O=C(NN1CCCC1)c1nc(-c2ccc(Cl)cc2)n(-c2ccc(Cl)cc2Cl)n1 [Example 2, 5-(4-Chlorophenyl)-1-(2,4-dichlorophenyl)-N-(pyrrolidin-1-yl)-1H-1,2,4-triazole-3-carboxamide hydrochloride] | 248 to 255 °C (dec.)
O=C(NN1CCCCC1)c1nc(-c2ccccn2)n(-c2ccc(Cl)cc2Cl)n1 | 191 to 193 °C
Cl.O=C(NN1CCCCC1)c1nc(-c2ccc(Cl)cc2)n(-c2ccc(Cl)cc2Cl)n1 | 238 to 240 °C (dec.)
Cl.O=C(NN1CCCC1)c1nc(-c2ccc(Cl)cc2Cl)n(-c2ccc(Cl)cc2)n1 | 234 to 236 °C (dec.)
O=C(NC1CCCCC1)c1nc(-c2ccc(Cl)cc2)n(-c2ccc(Cl)cc2Cl)n1 [Example 3, 5-(4-Chlorophenyl)-N-cyclohexyl-1-(2,4-dichlorophenyl)-1H-1,2,4-triazole-3-carboxamide] | 186 to 188 °C
CC(C)(C)ONC(=O)c1nc(-c2ccc(Cl)cc2)n(-c2ccc(Cl)cc2Cl)n1 | 150 to 152 °C
O=C(NN1CCCCC1)c1nc(-c2ccc(Cl)cc2Cl)n(-c2ccc(C(F)(F)F)cc2)n1 | 159 to 161 °C
O=C(NN1CCCCC1)c1nc(-c2cccnc2)n(-c2ccc(Cl)cc2Cl)n1 | 219 °C
O=C(NN1CCOCC1)c1nc(-c2ccc(Cl)cc2)n(-c2ccc(Cl)cc2Cl)n1 | 184 to 186 °C
Cl.O=C(NN1CCOCC1)c1nc(-c2ccc(Cl)cc2Cl)n(-c2ccc(Cl)cc2)n1 | 224 to 226 °C
